From patent publication US4556715A, “Nicotinic acid derivatives” (Kyorin Pharmaceutical Co., Ltd., priority 1980, dated 1985)
Read-outs that look alike come from different tables or passages of the source.

Assays:
[1] = tested on: serum and liver lipid levels in rats; experiment: Serum and liver lipid levels and relative liver weight in rats (100 mg/kg, 10 days); assay type: in vivo, Male rats of the Wistar strain; details: for response vs control in vivo at 100 mg/kg: Rattus norvegicus, po; for response vs control in vivo at 100 mg/kg / Relative liver weight, relative to Control (100): in parentheses, Control = (100); for Liver lipid levels Ch / Liver lipid levels PL / Liver lipid levels TG / Relative liver weight / Serum lipid levels Ch / Serum lipid levels PL / Serum lipid levels TG: 100 mg/kg p.o. 10 days, Mean ± S.E. (n = 9)
Description: (2) Male rats of the Wistar strain weighing 160-180 g were fed a stock deit (CE-2, Japan CLEA, Tokyo) and water ad libitum. The present compounds and KCD-232 were suspended, respectively, in a 0.5% of CMC solution and give orally to rats once a day at a dose of 100 mg/kg b.w. for 10 days.
Control rats were received the 0.5% CMC solution alone. The diet was withdrawn immediately after the last administration of compounds. Animals were sacrificed by decapitation 4 hr after the last administration and blood was collected, clotted and centrifuged to obtain serum. The liver was excised quickly and weighed. Total lipids were extracted from the serum and liver, and the levels of Ch, TG and PL were determined colorimetrically.

[2] = tested on: serum and liver lipid levels in normal rats; experiment: Effects on relative liver weight, serum and liver lipid levels in normal rats (100 mg/kg, 7 days); assay type: in vivo, Male Wistar strain rats
Description: (1) Effects on relative liver weight, serum and liver lipid levels in normal rats
Male Wistar strain rats, weighing 180-210 g were orally administered the present compounds (X=Cl, n1 =2, 3, 4 and n2 =1) and 4-(4-chlorobenzyloxy)benzyl nicotinate (KCD-232), being X=Cl, n1 =1, n2 =1, respectively, which were suspended in 0.5% carboxymethyl cellulose (CMC) solution once a day at a dose of 100 mg/kg b.w. for 7 days. The last administration was occured in rats fasted overnight. At 4 hr later blood was withdrawn from jugular vein, clotted and centrifuged to obtain serum. The liver was rapidly removed and weighed. Total lipids were extracted from the serum and liver, and cholesterol (Ch), triglycerides (TG) and phospholipids (PL) levels were determined.

[3] = 240 h, Table 2, read-out: Liver lipid levels PL, relative to Control (100)
[4] = 240 h, Table 3, read-out: Liver lipid levels PL, relative to Control (100)
[5] = Table 2, read-out: Liver lipid levels Ch, relative to Control (100)
[6] = Table 2, read-out: Liver lipid levels TG, relative to Control (100)
[7] = Table 2, read-out: Serum lipid levels Ch, relative to Control (100)
[8] = Table 2, read-out: Serum lipid levels PL, relative to Control (100)
[9] = Table 2, read-out: Serum lipid levels TG, relative to Control (100)
[10] = Table 3, read-out: Liver lipid levels Ch, relative to Control (100)
[11] = Table 3, read-out: Liver lipid levels TG, relative to Control (100)
[12] = Table 3, read-out: Serum lipid levels Ch, relative to Control (100)
[13] = Table 3, read-out: Serum lipid levels PL, relative to Control (100)
[14] = Table 3, read-out: Serum lipid levels TG, relative to Control (100)
[15] = Table 1, 100 mg/kg p.o. 7 days, fasted overnight, mean ± S.E. (n = 6)
[16] = Table 1, in parentheses, Control = (100)

Structure (SMILES) | Relative liver weight ([1]; Table 2) [g/100 g b.w.] | Relative liver weight, relative to Control (100) ([1]; Table 2) | response vs control in vivo at 100 mg/kg [1, 3] [%] | response vs control in vivo at 100 mg/kg [1, 4] [%] | response vs control in vivo at 100 mg/kg [1, 5] [%] | response vs control in vivo at 100 mg/kg [1, 6] [%] | response vs control in vivo at 100 mg/kg [1, 7] [%] | response vs control in vivo at 100 mg/kg [1, 8] [%] | response vs control in vivo at 100 mg/kg [1, 9] [%] | response vs control in vivo at 100 mg/kg [1, 10] [%] | response vs control in vivo at 100 mg/kg [1, 11] [%] | response vs control in vivo at 100 mg/kg [1, 12] [%] | response vs control in vivo at 100 mg/kg [1, 13] [%] | response vs control in vivo at 100 mg/kg [1, 14] [%] | Liver lipid levels Ch ([1]; Table 2) [mg/g liver] | Liver lipid levels PL ([1]; Table 2) [mg/g liver] | Liver lipid levels TG ([1]; Table 2) [mg/g liver] | Serum lipid levels Ch ([1]; Table 2) [mg/dL] | Serum lipid levels PL ([1]; Table 2) [mg/dL] | Serum lipid levels TG ([1]; Table 2) [mg/dL] | also measured
O=C(OCCc1ccc(OCCCCc2ccc(Cl)cc2)cc1)c1cccnc1 [n1=4, n2=2, 4-[4-(4-Chlorophenyl)butoxy]phenethyl nicotinate] | – | – | – | 109 | – | – | – | – | – | 98.3 | 79.7 | 74 | 67.1 | 24.9 | – | – | – | – | – | – | Liver lipid levels Ch ([1]; Table 3): 2.28 ± 0.09 mg/g liver; Liver lipid levels PL ([1]; Table 3): 39.6 ± 0.9 mg/g liver; Liver lipid levels TG ([1]; Table 3): 5.72 ± 0.40 mg/g liver; Relative liver weight ([1]; Table 3): 4.03 ± 0.07 g/100 g b.w.; Serum lipid levels Ch ([1]; Table 3): 72.2 ± 1.3 mg/dL; Serum lipid levels PL ([1]; Table 3): 104 ± 3.7 mg/dL; Serum lipid levels TG ([1]; Table 3): 31.3 ± 3.6 mg/dL; Relative liver weight, relative to Control (100) ([1]; Table 3): 106
O=C(OCCCCc1ccc(OCCCCc2ccc(Cl)cc2)cc1)c1cccnc1 [n1=4, n2=4, 4-{4-[4-(4-Chlorophenyl)butoxy]phenyl}butyl nicotinate] | 3.90 ± 0.06 | 101 | 107 | – | 79.3 | 112 | 70.8 | 69.2 | 31.5 | – | – | – | – | – | 2.41 ± 0.08 | 40.9 ± 0.4 | 7.11 ± 0.53 | 61.4 ± 3.2 | 103 ± 4.4 | 39 ± 3.2 | –
O=C(OCCCCCCc1ccc(OCCCCCCc2ccc(Cl)cc2)cc1)c1cccnc1 [n1=6, n2=6, 6-{4-[6'-(4-Chlorophenyl)hexyloxy]phenyl}hexyl nicotinate] | – | – | – | 107 | – | – | – | – | – | 103 | 64.3 | 79.3 | 64.9 | 23.7 | – | – | – | – | – | – | Liver lipid levels Ch ([1]; Table 3): 2.38 ± 0.08 mg/g liver; Liver lipid levels PL ([1]; Table 3): 38.7 ± 0.8 mg/g liver; Liver lipid levels TG ([1]; Table 3): 4.62 ± 0.15 mg/g liver; Relative liver weight ([1]; Table 3): 3.84 ± 0.10 g/100 g b.w.; Serum lipid levels Ch ([1]; Table 3): 77.4 ± 3.8 mg/dL; Serum lipid levels PL ([1]; Table 3): 101 ± 3.7 mg/dL; Serum lipid levels TG ([1]; Table 3): 29.8 ± 1.5 mg/dL; Relative liver weight, relative to Control (100) ([1]; Table 3): 101

Continued, in another order:

Relative liver weight ([1]; Table 2) [g/100 g b.w.] | Relative liver weight, relative to Control (100) ([1]; Table 2) | Structure (SMILES) | response vs control in vivo at 100 mg/kg [1, 3] [%] | response vs control in vivo at 100 mg/kg [1, 4] [%] | response vs control in vivo at 100 mg/kg [1, 5] [%] | response vs control in vivo at 100 mg/kg [1, 6] [%] | response vs control in vivo at 100 mg/kg [1, 7] [%] | response vs control in vivo at 100 mg/kg [1, 8] [%] | response vs control in vivo at 100 mg/kg [1, 9] [%] | response vs control in vivo at 100 mg/kg [1, 10] [%] | response vs control in vivo at 100 mg/kg [1, 11] [%] | response vs control in vivo at 100 mg/kg [1, 12] [%] | response vs control in vivo at 100 mg/kg [1, 13] [%] | response vs control in vivo at 100 mg/kg [1, 14] [%] | Liver lipid levels Ch ([1]; Table 2) [mg/g liver] | Liver lipid levels PL ([1]; Table 2) [mg/g liver] | Liver lipid levels TG ([1]; Table 2) [mg/g liver] | Serum lipid levels Ch ([1]; Table 2) [mg/dL] | Serum lipid levels PL ([1]; Table 2) [mg/dL] | Serum lipid levels TG ([1]; Table 2) [mg/dL] | also measured
4.10 ± 0.06 | 106 | O=C(OCCc1ccc(OCc2ccc(Cl)cc2)cc1)c1cccnc1 [n1=1, n2=2, 4-(4-Chlorobenzyloxy)phenethyl nicotinate] | 105 | 104 | 78.3 | 82.9 | 78.1 | 76.8 | 44.2 | 106 | 79 | 70.9 | 64.7 | 27.3 | 2.38 ± 0.10 | 39.9 ± 0.8 | 5.24 ± 0.36 | 67.7 ± 3.3 | 114 ± 4.7 | 54.7 ± 6.5 | Liver lipid levels Ch ([1]; Table 3): 2.46 ± 0.14 mg/g liver; Liver lipid levels PL ([1]; Table 3): 37.5 ± 0.4 mg/g liver; Relative liver weight ([1]; Table 3): 3.80 ± 0.07 g/100 g b.w.; Serum lipid levels Ch ([1]; Table 3): 69.2 ± 3.9 mg/dL; Serum lipid levels PL ([1]; Table 3): 101 ± 4.5 mg/dL; Serum lipid levels TG ([1]; Table 3): 34.2 ± 2.9 mg/dL; Relative liver weight, relative to Control (100) ([1]; Table 3): 100
4.44 ± 0.11 | 115 | O=C(OCCCCc1ccc(OCc2ccc(Cl)cc2)cc1)c1cccnc1 [n1=1, n2=4, 4-[4-Chlorobenzyloxy)phenyl]butyl nicotinate] | 101 | 101 | 70.1 | 106 | 75.4 | 77 | 39.5 | 108 | 103 | 76 | 68.2 | 29.9 | 2.13 ± 0.04 | 38.4 ± 0.7 | 6.73 ± 0.51 | 65.4 ± 1.4 | 114 ± 2.5 | 48.9 ± 5.1 | Liver lipid levels Ch ([1]; Table 3): 2.51 ± 0.11 mg/g liver; Liver lipid levels PL ([1]; Table 3): 36.7 ± 0.9 mg/g liver; Liver lipid levels TG ([1]; Table 3): 7.42 ± 0.88 mg/g liver; Relative liver weight ([1]; Table 3): 3.91 ± 0.10 g/100 g b.w.; Serum lipid levels Ch ([1]; Table 3): 74.2 ± 2.5 mg/dL; Serum lipid levels PL ([1]; Table 3): 106 ± 3.6 mg/dL; Serum lipid levels TG ([1]; Table 3): 37.6 ± 3 mg/dL; Relative liver weight, relative to Control (100) ([1]; Table 3): 103
3.98 ± 0.06 | 103 | O=C(OCc1ccc(OCCc2ccc(Cl)cc2)cc1)c1cccnc1 [n1=2, n2=1, 4-[2-(4-Chlorophenyl)ethoxy]benzyl nicotinate] | 102 | – | 96.7 | 87 | 76.7 | 74 | 44 | – | – | – | – | – | 2.94 ± 0.07 | 39.0 ± 0.7 | 5.50 ± 0.59 | 66.5 ± 2.2 | 110 ± 3.7 | 54.4 ± 5 | serum Ch, TG and PL (in words) ([2]; 100 mg/kg p.o. 7 days, compared with control): significantly reduced serum Ch, TG and PL; Liver lipid levels Ch [2, 15]: 3.78 ± 0.10 mg/g liver; Liver lipid levels PL [2, 15]: 37.2 ± 1.5 mg/g liver; Liver lipid levels TG [2, 15]: 11.49 ± 1.65 mg/g liver; Serum lipid levels Ch [2, 15]: 53.5 ± 2.2 mg/dL; Serum lipid levels PL [2, 15]: 69 ± 2.7 mg/dL; Serum lipid levels TG [2, 15]: 22.4 ± 4.3 mg/dL; Relative liver weight ([2]; Table 1, 100 mg/kg p.o. 7 days, mean ± S.E. (n = 6)): 3.17 ± 0.10 g/100 g b.w.; Liver lipid levels Ch, relative to Control (100) [2, 16]: 107; Liver lipid levels PL, relative to Control (100) [2, 16]: 101; Liver lipid levels TG, relative to Control (100) [2, 16]: 156; Relative liver weight, relative to Control (100) [2, 16]: 103; Serum lipid levels Ch, relative to Control (100) [2, 16]: 70; Serum lipid levels PL, relative to Control (100) [2, 16]: 68; Serum lipid levels TG, relative to Control (100) [2, 16]: 66
3.97 ± 0.05 | 103 | O=C(OCCc1ccc(OCCc2ccc(Cl)cc2)cc1)c1cccnc1 [n1=2, n2=2, 4-(4-Chorophenethyloxy)phenetyl nicotinate] | 107 | – | 79.3 | 84.2 | 78.8 | 78.2 | 39.1 | – | – | – | – | – | 2.41 ± 0.10 | 40.8 ± 0.3 | 5.32 ± 0.45 | 68.3 ± 3.7 | 116 ± 5 | 48.4 ± 4.8 | –
